Measurements: PMC2216945 (The Journal of General Physiology, 1995)

Target: cystic fibrosis transmembrane conductance regulator (CFTR) (Homo sapiens, UniProt P13569)
Assay: inside-out patch clamp, inhibition of ATP-dependent channel open probability
Assay type: cell-based

Chain of cystic fibrosis transmembrane conductance regulator (CFTR) (P13569 whole entry): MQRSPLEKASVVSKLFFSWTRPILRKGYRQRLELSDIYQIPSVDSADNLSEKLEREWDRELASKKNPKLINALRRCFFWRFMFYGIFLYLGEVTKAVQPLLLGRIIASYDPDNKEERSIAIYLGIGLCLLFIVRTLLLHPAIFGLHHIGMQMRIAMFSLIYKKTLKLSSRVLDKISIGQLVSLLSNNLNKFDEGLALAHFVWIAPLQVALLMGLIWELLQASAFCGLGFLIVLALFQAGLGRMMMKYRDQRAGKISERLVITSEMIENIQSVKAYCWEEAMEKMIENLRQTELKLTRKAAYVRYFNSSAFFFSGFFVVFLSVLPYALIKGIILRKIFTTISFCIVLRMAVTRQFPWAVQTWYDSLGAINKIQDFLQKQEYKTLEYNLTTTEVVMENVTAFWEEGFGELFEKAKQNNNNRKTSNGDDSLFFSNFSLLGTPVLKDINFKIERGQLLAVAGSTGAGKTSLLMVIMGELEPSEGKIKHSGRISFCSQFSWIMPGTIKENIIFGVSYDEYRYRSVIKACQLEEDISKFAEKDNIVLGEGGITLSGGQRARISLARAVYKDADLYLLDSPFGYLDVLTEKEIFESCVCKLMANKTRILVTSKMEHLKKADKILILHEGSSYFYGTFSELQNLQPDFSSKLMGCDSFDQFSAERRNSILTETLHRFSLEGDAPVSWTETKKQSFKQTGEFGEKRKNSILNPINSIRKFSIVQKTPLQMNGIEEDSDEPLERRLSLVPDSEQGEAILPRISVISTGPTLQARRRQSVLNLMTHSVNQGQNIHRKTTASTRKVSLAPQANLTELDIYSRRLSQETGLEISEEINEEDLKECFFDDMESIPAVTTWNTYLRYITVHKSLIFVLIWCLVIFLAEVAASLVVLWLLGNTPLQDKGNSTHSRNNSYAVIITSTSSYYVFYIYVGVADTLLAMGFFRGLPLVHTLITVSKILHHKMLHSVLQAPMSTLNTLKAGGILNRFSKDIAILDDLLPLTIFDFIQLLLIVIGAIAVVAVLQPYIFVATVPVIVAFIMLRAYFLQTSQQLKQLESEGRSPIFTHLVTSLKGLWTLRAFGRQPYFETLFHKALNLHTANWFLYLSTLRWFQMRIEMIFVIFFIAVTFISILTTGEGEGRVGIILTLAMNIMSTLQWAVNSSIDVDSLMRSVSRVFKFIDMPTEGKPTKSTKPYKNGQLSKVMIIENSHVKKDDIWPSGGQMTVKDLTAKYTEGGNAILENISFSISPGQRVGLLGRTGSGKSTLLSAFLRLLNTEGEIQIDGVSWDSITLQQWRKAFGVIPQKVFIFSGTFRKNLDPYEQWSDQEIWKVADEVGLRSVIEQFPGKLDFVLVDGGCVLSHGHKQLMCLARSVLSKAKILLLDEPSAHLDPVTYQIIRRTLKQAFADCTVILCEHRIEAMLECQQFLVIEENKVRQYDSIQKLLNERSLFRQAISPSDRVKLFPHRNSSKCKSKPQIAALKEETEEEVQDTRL

Ki: 16 ± 9 µM
SMILES: Nc1ncnc2c1ncn2[C@@H]1O[C@H](COP(=O)(O)OP(=O)(O)O)[C@@H](O)[C@H]1O [ADP]
